Key:
JAK3 enzyme [1] = molecular target: T1, JAK3 enzyme (Homo sapiens, UniProt P52333); assay: JAK Caliper Enzyme Assay at 1 mM ATP; assay type: biochemical
T1 sequence (P52333 1-1124): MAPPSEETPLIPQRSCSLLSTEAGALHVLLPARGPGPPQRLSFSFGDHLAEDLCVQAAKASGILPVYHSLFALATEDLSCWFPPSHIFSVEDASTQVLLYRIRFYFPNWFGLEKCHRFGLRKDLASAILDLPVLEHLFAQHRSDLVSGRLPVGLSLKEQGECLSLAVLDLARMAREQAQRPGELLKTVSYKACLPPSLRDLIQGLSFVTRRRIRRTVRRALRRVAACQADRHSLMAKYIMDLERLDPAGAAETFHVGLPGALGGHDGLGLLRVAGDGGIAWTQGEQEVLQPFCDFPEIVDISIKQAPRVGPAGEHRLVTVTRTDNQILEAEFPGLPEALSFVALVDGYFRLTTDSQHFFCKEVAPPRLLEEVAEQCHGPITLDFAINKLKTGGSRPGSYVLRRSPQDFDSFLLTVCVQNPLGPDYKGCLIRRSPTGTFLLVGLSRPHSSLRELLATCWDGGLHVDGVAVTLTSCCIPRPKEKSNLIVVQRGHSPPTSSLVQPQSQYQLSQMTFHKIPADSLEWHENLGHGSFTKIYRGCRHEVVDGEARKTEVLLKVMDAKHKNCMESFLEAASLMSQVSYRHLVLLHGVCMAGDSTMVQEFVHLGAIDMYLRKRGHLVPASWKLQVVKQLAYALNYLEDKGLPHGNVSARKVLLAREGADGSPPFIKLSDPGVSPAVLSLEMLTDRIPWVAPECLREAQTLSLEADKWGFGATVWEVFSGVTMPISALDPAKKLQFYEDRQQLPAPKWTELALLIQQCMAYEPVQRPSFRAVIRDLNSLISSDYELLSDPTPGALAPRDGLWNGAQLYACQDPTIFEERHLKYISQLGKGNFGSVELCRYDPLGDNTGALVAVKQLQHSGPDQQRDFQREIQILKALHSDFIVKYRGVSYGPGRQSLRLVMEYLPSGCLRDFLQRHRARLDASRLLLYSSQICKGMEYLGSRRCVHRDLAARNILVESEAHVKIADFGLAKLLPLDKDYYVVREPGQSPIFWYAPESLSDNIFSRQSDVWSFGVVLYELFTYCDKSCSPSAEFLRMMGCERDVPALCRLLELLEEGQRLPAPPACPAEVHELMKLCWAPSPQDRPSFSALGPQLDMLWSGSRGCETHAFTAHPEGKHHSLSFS
Description: (§1) Test article was solubilized in dimethyl sulfoxide (DMSO) to a stock concentration of 30 mM. An 11-point half log dilution series was created in DMSO with a top concentration of 600 μM. […] Test article and assay controls were added to a 384-well plate. […] Enzyme concentrations and incubation times were optimized for each new enzyme preps and were modified slightly over time to ensure 20%-30% phosphorylation. […] The assay plates were placed on a Caliper Life Science Lab Chip 3000 (LC3000) instrument, and each well was sampled using appropriate separation conditions to measure the unphosphorylated and phosphorylated peptide.

JAK3 enzyme [2] = molecular target: T1, JAK3 enzyme; assay: JAK Caliper Enzyme Assay at 4 μM ATP; assay type: biochemical
Description: as §1

Row | Structure (SMILES) | IC50 (JAK3 enzyme [1]) [nM] | IC50 (JAK3 enzyme [2]) [nM]
1 | C=CC(=O)N1CCN(c2cnc3[nH]cc(C(=O)NCC4(O)CCC(F)(F)CC4)c3n2)CC1(C)C [Example 291, 2-(4-acryloyl-3,3-dimethylpiperazin-1-yl)-N-[(4,4-difluoro-1-hydroxycyclohexyl)methyl]-5H-pyrrolo[2,3-b]pyrazine-7-carboxamide] | 1490 | 15.5
2 | C=CC(=O)N1CCN(c2cnc3[nH]cc(C(=O)N[C@@H](C)COCc4ccccc4)c3n2)CC1(C)C [Example 134, 2-(4-acryloyl-3,3-dimethylpiperazin-1-yl)-N-[(2S)-1-(benzyloxy)propan-2-yl]-5H-pyrrolo[2,3-b]pyrazine-7-carboxamide] | 2530 | 12.4
3 | C=CC(=O)N1CCN(c2cnc3[nH]cc(C(=O)NC(C)(C)COC)c3n2)CC1(C)C [Example 151, 2-(4-acryloyl-3,3-dimethylpiperazin-1-yl)-N-(1-methoxy-2-methylpropan-2-yl)-5H-pyrrolo[2,3-b]pyrazine-7-carboxamide] | 1520 | 13.6
4 | C=CC(=O)N1C[C@@H](Nc2ncnc3[nH]ccc23)CC[C@H]1COC (single isomer, unassigned) [Example 93] | > 3160 | 711
5 | C=CC(=O)N1CC(Nc2cnc3[nH]cc(C(=O)NCC)c3n2)C2(CC2)C1 (stereo not drawn) [Example 244, 2-[(5-acryloyl-5-azaspiro[2.4]hept-7-yl)amino]-N-ethyl-5H-pyrrolo[2,3-b]pyrazine-7-carboxamide] | > 10000 | 82.3
6 | C=CC(=O)N1CCN(c2cnc3[nH]cc(C(=O)N[C@H]4CCOC4)c3n2)CC1(C)C [Example 150, 2-(4-acryloyl-3,3-dimethylpiperazin-1-yl)-N-[(3S)-tetrahydrofuran-3-yl] 5H-pyrrolo[2,3-b]pyrazine-7-carboxamide] | 1110 | 8.09
7 | C=CC(=O)N1C[C@H](Nc2cnc3[nH]cc(C(=O)NCC)c3n2)[C@@](C)(C#N)C1 [Example 240, 2-{[(3R,4S)-1-acryloyl-4-cyano-4-methylpyrrolidin-3-yl]amino}-N-ethyl-5H-pyrrolo[2,3-b]pyrazine-7-carboxamide] | 4060 | 10.9
8 | C=CC(=O)N1CC[C@@H](Oc2cnc3[nH]cc(C(=O)N[C@@H](C)COC)c3n2)C1 [Example 53, 2-{[(3R)-1-acryloylpyrrolidin-3-yl]oxy}-N-[(2S)-1-methoxypropan-2-yl]-5H-pyrrolo[2,3-b]pyrazine-7-carboxamide] | 4000 | 31.2
9 | C=CC(=O)N1CCC(Oc2cnc3[nH]cc(C(=O)NCc4ccccc4)c3c2)CC1 [Example 342, 5-[(1-acryloylpiperidin-4-yl)oxy]-N-benzyl-1H-pyrrolo[2,3-b]pyridine-3-carboxamide] | 2630 | 26.4
10 | C=CC(=O)N1CCN(c2cnc3[nH]cc(C(=O)N[C@H](CO)CCC)c3n2)CC1(C)C [Example 161, 2-(4-acryloyl-3,3-dimethylpiperazin-1-yl)-N-[(2S)-1-hydroxypentan-2-yl] 5H-pyrrolo[2,3-b]pyrazine-7-carboxamide] | 1120 | 7.35
11 | C=CC(=O)N1CCN(c2cnc3[nH]cc(C(=O)N[C@@H]4COC[C@@H]4n4cc(F)cn4)c3n2)CC1(C)C [Example 159, 2-(4-acryloyl-3,3-dimethylpiperazin-1-yl)-N-[(3S,4R)-4-(4-fluoro-1H-pyrazol-1-yl)tetrahydrofuran-3-yl]-5H-pyrrolo[2,3-b]pyrazine-7-carboxamide] | 865 | 6.31
12 | C=CC(=O)N1CCC(Oc2cnc3[nH]cc([C@H](C)O)c3n2)CC1 (single isomer, unassigned) [Example 118] | 1890 | 16.1
13 | C=CC(=O)N1CC[C@@H](COc2cnc3[nH]cc(C(=O)N[C@H](C)COC)c3n2)C1 (single isomer, unassigned) [Example 14] | 3010 | 54.8
14 | C=CC(=O)N1CC[C@H](Nc2cnc3[nH]cc(C(=O)N[C@@H](C)COC)c3n2)[C@H](OC)C1 (single isomer, unassigned) [Example 356] | 831 | 4.07
15 | C=CC(=O)N1CCN(c2cnc3[nH]cc(C(=O)N[C@@H]4C[C@H]4C(F)(F)F)c3n2)CC1(C)C [Example 290, 2-(4-acryloyl-3,3-dimethylpiperazin-1-yl)-N-[(1R,2R)-2-(trifluoromethyl)cyclopropyl]-5H-pyrrolo[2,3-b]pyrazine-7-carboxamide] | 2150 | 20.8
16 | C=CC(=O)N1C[C@H](Nc2cnc3[nH]cc(C(=O)NCCOC)c3n2)C[C@@H]1COC [Example 246, 2-{[(3R,5R)-1-acryloyl-5-(methoxymethyl)pyrrolidin-3-yl]amino}-N-(2-methoxyethyl)-5H-pyrrolo[2,3-b]pyrazine-7-carboxamide] | 1110 | 7.79
17 | C=CC(=O)N1CC[C@@H](N(C)c2cnc3[nH]cc(C(=O)NCC)c3n2)C1 (single isomer, unassigned) [Example 29] | 8310 | 

These reach a lower IC50 (JAK3 enzyme [1]). Values come first.

Row | IC50 (JAK3 enzyme [1]) [nM] | IC50 (JAK3 enzyme [2]) [nM] | Structure (SMILES)
18 | 769 | 7.76 | C=CC(=O)N1CCN(c2cnc3[nH]cc(C(=O)N[C@@H]4COc5ccccc5C4)c3n2)CC1(C)C [Example 168, 2-(4-acryloyl-3,3-dimethylpiperazin-1-yl)-N-[(3S)-3,4-dihydro-2H-chromen-3-yl]-5H-pyrrolo[2,3-b]pyrazine-7-carboxamide]
19 | 726 | 4.34 | C=CC(=O)N1CCN(c2cnc3[nH]cc(C(=O)NC4CCOC4)c3n2)CC1(C)C (racemic) [Example 164, Racemic-2-(4-acryloyl-3,3-dimethylpiperazin-1-yl)-N-(tetrahydrofuran-3-yl)-5H-pyrrolo[2,3-b]pyrazine-7-carboxamide]
20 | 676 | 2.14 | C=CC(=O)N1C[C@H](C)[C@H](Nc2cnc3[nH]cc(C(=O)NCC)c3n2)C1 (stereo in doubt) [Example 260, 2-[(1-acryloyl-4-methylpyrrolidin-3-yl)amino]-N-ethyl-5H-pyrrolo[2,3-b]pyrazine-7-carboxamide]
21 | 633 | 4.69 | C=CC(=O)N1CC[C@H](CNc2cnc3[nH]cc(C(=O)N[C@H](C)COC)c3n2)C1 (single isomer, unassigned) [Example 21]
22 | 632 | 2.77 | C=CC(=O)N1CCC(COc2cnc3[nH]cc(C(=O)N[C@@H](C)COC)c3n2)C1 (mixture of isomers) [Example 10, Racemic-2-[(1-acryloylpyrrolidin-3-yl)methoxyl]-N-[(2S)-1-methoxypropan-2-yl]-5H-pyrrolo[2,3-b]pyrazine-7-carboxamide]
23 | 606 | 2.5 | C=CC(=O)N1C[C@H](Nc2cnc3[nH]cc(C(=O)NCCOC)c3n2)[C@@](C)(C#N)C1 [Example 232, 2-{[(3R,4S)-1-acryloyl-4-cyano-4-methylpyrrolidin-3-yl]amino}-N-(2-methoxyethyl)-5H-pyrrolo[2,3-b]pyrazine-7-carboxamide]
24 | 599 | 4.61 | C=CC(=O)N1CCN(c2cnc3[nH]cc(C(=O)N[C@H](C)COc4ccccc4)c3n2)CC1(C)C [Example 167, 2-(4-acryloyl-3,3-dimethylpiperazin-1-yl)-N-[(2R)-1-phenoxypropan-2-yl]-5H-pyrrolo[2,3-b]pyrazine-7-carboxamide]
25 | 463 | 4.33 | C=CC(=O)N1CCN(c2cnc3[nH]cc(C(=O)N[C@@H]4CCO[C@H]4C)c3n2)CC1(C)C [Example 160, 3-({[2-(4-acryloyl-3,3-dimethylpiperazin-1-yl)-5H-pyrrolo[2,3-b]pyrazin-7-yl]carbonyl}amino)-2,5-anhydro-1,3,4-trideoxy-D-erythro-pentitol]
26 | 430 | 3.32 | C=CC(=O)N1CCN(c2cnc3[nH]cc(C(=O)NC4COCc5ccccc54)c3n2)CC1(C)C (racemic) [Example 144, Racemic-2-(4-acryloyl-3,3-dimethylpiperazin-1-yl)-N-(3,4-dihydro-1H-isochromen-4-yl)-5H-pyrrolo[2,3-b]pyrazine-7-carboxamide]

— patent US10703756B2, “Pyrrolo[2,3-D]pyrimidinyl, pyrrolo[2,3-B]pyrazinyl, pyrrolo[2,3-B]pyridinyl acrylamides and epoxides thereof” (Pfizer Inc., priority 2015, dated 2020)
